According to patent US20050014182A1, “Use of calpain for identifying compounds that modulate pain” (Aventis Pharma Deutschland GmbH, priority 2003, published 2005):
Entries after “also recorded” stand apart in the source; their conditions may differ. Read-outs that look alike come from different tables or passages of the source. Where a SMILES comes first, the peptide text is derived from it. The star is where a group is joined. Cbz = O=C(OCc1ccccc1)*

Experiments:
[1] = system: zymosan induced paw oedema; experiment: Zymosan induced paw inflammation model (paw oedema); type: in vivo, rat; settings: for paw oedema (AUC of paw volume increase 0-8 h) versus control: 25 mg/kg i.p., 1.25 mg zymosan intraplantar, 25 mg/kg
Experimental: Unilateral hind paw inflammation and paw oedema was induced by subcutaneous injection of 1.25 mg zymosan (Sigma, München, Germany), suspended in 100 μl phosphate buffered saline (12.5 mg/ml), into the midplantar region of the right hind paw. After 24, 48 or 96 h animals were anaesthetized and killed by cardiac puncture. Spinal cords were excised, directly frozen in liquid nitrogen and then kept at −80° C. until further analysis. Paw oedema was induced by zymosan injection as described above. The paw volume was measured before and 0.25, 0.5, 1, 2, 4, 6, 8 and 24 h after zymosan injection using a plethysmometer (Ugo Basile, Varese, Italy). Six rats per group were used. At each time point five measurements of the paw volume were taken. The average of these five measurements was used for further analysis. […] Six animals were used for each treatment group. (Controls received 1 ml of vehicle.) Treatments were randomly allocated to animals and the observers were unaware of treatment allocations. The percent relative difference in paw withdrawal latency (ΔPWL) between the zymosan treated right and the untreated left hind paw, calculated as: ΔPWL=(right−left)/left×100, was used to asses antinociceptive effects. To evaluate anti-inflammatory effects, the relative difference between the paw volume before and after zymosan injection (ΔPV) was used. The areas under the ΔPWL versus time curves (AUCΔPWL) as well as the areas under the ΔPV versus time curves (AUCΔPV) were calculated using the linear trapezoidal rule. Statistical evaluation was done by SPSS 9.02 for Windows. Effects of study medications were assessed by submitting the AUCΔPV from 0-8 h to univariate analysis of variance (ANOVA) with subsequent t-tests employing a Bonferroni […]-correction for multiple comparisons. Statistical significance of ΔPWL was calculated by unpaired Student's t-test (zymosan-treated rats versus control rats). □ was set at 0.05.

[2] = system: zymosan induced thermal hyperalgesia; experiment: Zymosan induced thermal hyperalgesia (paw withdrawal latency, Hargreaves); type: in vivo, rat; settings: for thermal hyperalgesia (paw withdrawal latency): rats, 25 mg/kg i.p., 1.25 mg zymosan intraplantar, 25 mg/kg
Experimental: Unilateral hind paw inflammation and paw oedema was induced by subcutaneous injection of 1.25 mg zymosan (Sigma, München, Germany), suspended in 100 μl phosphate buffered saline (12.5 mg/ml), into the midplantar region of the right hind paw. After 24, 48 or 96 h animals were anaesthetized and killed by cardiac puncture. Spinal cords were excised, directly frozen in liquid nitrogen and then kept at −80° C. until further analysis. Nociceptive paw withdrawal latency to radial heat was assessed according to Hargreaves (Hargreaves et al., 1988), using a commercially available special device (Ugo Basile, Varese, Italy). Rats were placed in transparent plastic chambers (18×29×12.5 cm) on a metal grid (5×5 mm). The heat source consisting of a high projector lamp bulb was focused on the mid-plantar surface of the hind paw. The bulb and an electronic timer were simultaneously activated at the test start, and both were automatically inactivated when a photocell detected a paw withdrawal in response to the heat. Paw withdrawal latencies (PWL) of the right and left paw (treated and untreated paw) were recorded before and every 60 min up to 8 h and 24 h after zymosan injection. […] Six animals were used for each treatment group. (Controls received 1 ml of vehicle.) Treatments were randomly allocated to animals and the observers were unaware of treatment allocations. The percent relative difference in paw withdrawal latency (ΔPWL) between the zymosan treated right and the untreated left hind paw, calculated as: ΔPWL=(right−left)/left×100, was used to asses antinociceptive effects. […] The areas under the ΔPWL versus time curves (AUCΔPWL) as well as the areas under the ΔPV versus time curves (AUCΔPV) were calculated using the linear trapezoidal rule. […] Effects of study medications were assessed by submitting the AUCΔPV from 0-8 h to univariate analysis of variance (ANOVA) with subsequent t-tests employing a Bonferroni […]-correction for multiple comparisons. Statistical significance of ΔPWL was calculated by unpaired Student's t-test (zymosan-treated rats versus control rats). □ was set at 0.05.

[3] = system: calpain; experiment: Calpain inhibition (statement, no method given); type: biochemical; settings: statement without data
[4] = system: calpain; experiment: Calpain activity of spinal cord extracts of zymosan treated rats (fluorometric cleavage of Ac-LLY-AFC); type: in vivo, rat
Experimental: (§1) Unilateral hind paw inflammation and paw oedema was induced by subcutaneous injection of 1.25 mg zymosan (Sigma, München, Germany), suspended in 100 μl phosphate buffered saline (12.5 mg/ml), into the midplantar region of the right hind paw. After 24, 48 or 96 h animals were anaesthetized and killed by cardiac puncture. Spinal cords were excised, directly frozen in liquid nitrogen and then kept at −80° C. until further analysis.
(§2) Calpain inhibitor III (MDL 28170) (Calbiochem, Schwalbach/Ts., Germany) was dissolved in PEG 400/DMSO (1:1) at a concentration of 10 mg/ml. Animals received calpain inhibitor III either as a 12.5 mg/kg or a 25 mg/kg intraperitoneal (i.p.) bolus injection 20 min prior to the intraplantar injection of zymosan. Six animals were used for each treatment group. (Controls received 1 ml of vehicle.) Treatments were randomly allocated to animals and the observers were unaware of treatment allocations.

[5] = system: neurofilament light chain (NF-L); experiment: Neurofilament light chain (NF-L) degradation in spinal cord after zymosan treatment (immunohistochemistry); type: in vivo, rat; settings: for NF-L immunofluorescence in spinal cord slices: 96 h after zymosan, pre-treatment with inhibitor; for zymosan induced neurofilament degradation: rats, 12.5 mg/kg and 25 mg/kg i.p.
Experimental: as §1, §2
For immunohistochemical staining, the lumbal spinal cord segments were excised, directly frozen in liquid nitrogen and stored at −80° C. Fresh-frozen tissue sections (14 μm) were cut in a cryostat, mounted on gelatin-subbed slides, and fixed for 10 min in 4% paraformaldehyd in PBS (pH 7.4). Slides were washed with three 10-min washes in PBS and treated for 15 min with PBS containing 0.1% Triton-X 100. The sections were then blocked in 3% BSA in PBS for 1 h to reduce nonspecific binding and then incubated with pimary monoclonal antibody, anti-NFL (1:100; Sigma) and anti-m-calpain (1:50; Affinity BioReagents) for 1 h at 37° C. NF-L and m-calpain were flourescently labelled with a 1 h incubation at 37° C. with Cy3-conjugated secondary antibody (1:600; Sigma). Slides were washed with three 10-min washes in PBS after each incubation. Primary and secondary antibody incubations were performed in PBS containing 1% BSA. Slides were mounted with SlowFade Light Antifade mounting media according to manufacturer's protocol.
Immunohistochemistry was applied to determine the protein levels of neurofilament-L and calpain in rat spinal cord slices after zymosan treatment with and without additional administration of calpain inhibitor III.

[6] = system: m-calpain; experiment: Calpain protein expression in spinal cord after zymosan treatment (anti-m-calpain immunohistochemistry); type: in vivo, rat; settings: 96 h after zymosan, pre-treatment with inhibitor
Experimental: as §1, §2
For immunohistochemical staining, the lumbal spinal cord segments were excised, directly frozen in liquid nitrogen and stored at −80° C. Fresh-frozen tissue sections (14 μm) were cut in a cryostat, mounted on gelatin-subbed slides, and fixed for 10 min in 4% paraformaldehyd in PBS (pH 7.4). Slides were washed with three 10-min washes in PBS and treated for 15 min with PBS containing 0.1% Triton-X 100. […]

[7] = system: calpain; settings: described in literature, cited from earlier work
[8] = following systemic administration; cited from earlier work
[9] = tested as described for calpain inhibitor III
[10] = listed as Calpain inhibitor III

SMILES | effects on inflammation [1, 9] | effects on nociception [2, 9] | calpain inhibition [3] | zymosan-induced protease (calpain) activation in the spinal cord ([4]; rats, 25 mg/kg i.p. 20 min prior to zymosan) | calpain activity of spinal cord extracts ([4]; zymosan treated rats, calpain inhibitor III 12.5 mg/kg or 25 mg/kg i.p. before zymosan (FIG. 2 legend)) | NF-L immunofluorescence in spinal cord slices [5] | NF-L immunofluorescence in spinal cord slices [5, 10] | zymosan induced neurofilament degradation [5] | zymosan induced neurofilament degradation ([5]; listed as MDL 28170) | calpain (m-calpain) protein expression in spinal cord [6] | calpain (m-calpain) protein expression in spinal cord ([6]; listed as MDL-28170) | paw oedema (AUC of paw volume increase 0-8 h) versus control ([1]; rats) | paw oedema (AUC of paw volume increase 0-8 h) versus control ([1]; rats, listed as Calpain inhibitor III) | paw inflammation (paw volume increase) ([1]; rats, doses of 12.5 and 25 mg/kg i.p.) | thermal hyperalgesia (paw withdrawal latency) [2] | thermal hyperalgesia (paw withdrawal latency) [2, 10] | calpain inhibition (calpain I and II) [7] | calpain inhibition (calpain I and II) ([7]; listed as MDL 28170) | blood-brain barrier penetration [8]
CC(C)[C@H](NC(=O)OCc1ccccc1)C(=O)N[C@H](C=O)Cc1ccccc1 [MDL-102935] (Cbz-Val-Phe-aldehyde) | the same as those of MDL-28170 | the same as those of MDL-28170 | inhibitor of calpain |  |  |  |  |  |  |  |  |  |  |  |  |  |  |  | 
CC(C)[C@H](NC(=O)OCc1ccccc1)C(=O)N[C@H](C=O)Cc1ccccc1 [calpain inhibitor III, Carbobenzoxy-valinyl-phenylalaninal] (Cbz-Val-Phe-aldehyde) |  |  |  | significantly inhibited | reduced | immunofluorescence levels comparable to control slices of untreated rats | reduced the loss of NF-L | attenuated the zymosan induced neurofilament degradation | blocked the degradation of neurofilament protein | not altered | not affected | significantly reduced the paw edema; also recorded: statistically significant differences | significantly reduces the paw oedema | inhibited paw inflammation dose-dependently; also recorded: attenuates the development of zymosan induced paw inflammation | antinociceptive responses; also recorded: significantly higher paw withdrawal latency; also recorded: attenuates | significantly reduces thermal hyperalgesia | potent, selective and cell-permeable inhibitor of calpain 1 and II | potent, specific calpain inhibitor | rapidly penetrates the blood-brain barrier
COc1ccc2c(c1)c(CC(=O)O)c(C)n2C(=O)c1ccc(Cl)cc1 [indomethacin] |  |  |  |  |  |  |  |  |  |  |  |  |  |  |  |  | calpain inhibiting activity |  | 
